# Columns and labels:
# [1] = Pharmacokinetic study Experiment #4, oral administration in rats; type: in vivo, rat; details: rat, in vivo, 10 mg EqEYP001/Kg, male rats, aqueous formulation
# Procedure: In a fourth study (Experiment #4), EYP001, EYP001 L-lysine salt amorphous Form and EYP001 L-lysine salt Form VI in aqueous formulations (0.5% CMC, 0.25% Tween 80, water) were orally administrated at a dose of 10 mg EqEYP001/Kg in 8 male rats for each compound (4 rats on day 1 and 4 rats on day 2 for each compound). Blood samples were taken at 0.25 h, 0.5 h, 1 h, 2 h, 4 h, 6 h, 8 h, 12 h, and 24 h after oral administration.
# [2] = Pharmacokinetic study Experiment #3, oral administration in rats; type: in vivo, rat; details: rat, plasma, 10 mg EqEYP001/Kg, male rats, aqueous formulation
# Procedure: (§1) In a third study (Experiment #3), EYP001 and EYP001 L-lysine salt Form I in aqueous formulations (0.5% CMC, 0.25% Tween 80, water) were orally administrated at a dose of 10 mg EqEYP001/Kg in 6-8 male rats for each compound. Blood samples were taken at 0.25 h, 0.5 h, 1 h, 2 h, 4 h, 6 h, 8 h, 12 h, and 24 h after oral administration.
# [3] = Solubility kinetics in pH 4.5 acetate buffer; type: physicochemical; details: 37 ° C.
# Procedure: The solubility kinetics of the salt forms as well as the native EYP001 free acid form were determined in FaSSIF and FeSSIF media, and in a pH 4.5 acetate buffer as detailed below:
# The samples were prepared by adding an excess of each tested bulk (salt or native EYP001) to a given volume of test medium. The suspension was stirred by orbital stirring over 1 hour (in both pH 4.5 acetate buffer and FeSSIF medium) or 24 hours (inFaSSIF medium) at 37° C., protected from light.
# In pH 4.5 acetate buffer, the soluble concentration was assessed after 0.5 hour and 1 hour of stirring.
# At each time point, the “supernatant” was isolated and diluted in a solvent mixture allowing its injection into the chromatographic system. The concentration in solution in the test medium was determined by HPLC with external standardization.
# [4] = Solubility kinetics in FaSSIF medium; type: physicochemical; details: after 24 h
# Procedure: The solubility kinetics of the salt forms as well as the native EYP001 free acid form were determined in FaSSIF and FeSSIF media, and in a pH 4.5 acetate buffer as detailed below: The samples were prepared by adding an excess of each tested bulk (salt or native EYP001) to a given volume of test medium. The suspension was stirred by orbital stirring over 1 hour (in both pH 4.5 acetate buffer and FeSSIF medium) or 24 hours ([…] medium) at 37° C., protected from light. In FaSSIF medium, the soluble concentration was assessed after 24 hours of stirring. […] At each time point, the “supernatant” was isolated and diluted in a solvent mixture allowing its injection into the chromatographic system. The concentration in solution in the test medium was determined by HPLC with external standardization.
# [5] = Pharmacokinetic study Experiment #2, oral administration in rats; type: in vivo, rat; details: rat, in vivo, 50 mg EqEYP001/Kg, male rats, aqueous formulation
# Procedure: as §1, with “second” for “third”, “#2),” for “#3),”, “50” for “10”, “8” for “6-8”
# [6] = Solubility kinetics in FeSSIF medium; type: physicochemical; details: for Soluble fraction: 37 ° C.; for pH: pH given with the soluble fraction
# Procedure: The solubility kinetics of the salt forms as well as the native EYP001 free acid form were determined in FaSSIF and FeSSIF media, and in a pH 4.5 acetate buffer as detailed below: The samples were prepared by adding an excess of each tested bulk (salt or native EYP001) to a given volume of test medium. […] In FaSSIF medium, the soluble concentration was assessed after 24 hours of stirring. […] At each time point, the “supernatant” was isolated and diluted in a solvent mixture allowing its injection into the chromatographic system. The concentration in solution in the test medium was determined by HPLC with external standardization.
# [7] = Pharmacokinetic study Experiment #1, oral administration in rats; type: in vivo, rat; details: rat, in vivo, 50 mg EqEYP001/Kg, male rats, aqueous formulation
# Procedure: In a first study (Experiment #1), EYP001, EYP001 Meglumine salt, and EYP001 L-lysine salt Form I in aqueous formulations (0.5% CMC, 0.25% Tween 80, water) were orally administrated at a dose of 50 mg EqEYP001/Kg in 3 male rats for each compound. Blood samples were taken at 0.25 h, 0.5 h, 1 h, 2 h, 4 h, 6 h, 8 h, 12 h, and 24 h after oral administration.
structure (smiles),measurement,setting,value
"O=C(O)c1cc2c(Cl)c(N3CCN(S(=O)(=O)c4c(Cl)cccc4Cl)CC3)ccc2o1 [EYP001, 4-chloro-5-[4-(2,6-dichlorophenyl)sulfonylpiperazin-1-yl]-1-benzofuran-2-carboxylic acid]",Cmax,[1],1440 ng/mL
same,AUC(0-t),[1]; read-out: Mean AUClast,3380 ng·h/mL
same,Cmax,[2],1350 ng/mL
same,AUC(0-t),[2]; read-out: Mean AUC0-24,3970 ng·h/mL
same,Soluble fraction,[3]; after 0.5 h,0.004 mg/mL of EYP001
same,Soluble fraction,[3]; after 1 h,0.003 mg/mL of EYP001
same,Soluble fraction,[4]; 37° C.,0.20 mg/mL of EYP001
same,pH,[4]; pH given with the soluble fraction,6.4
same,Cmax,[5],5580 ng/mL
same,AUC(0-t),[5]; read-out: Mean AUC0-24,29000 ng·h/mL
same,Soluble fraction,[6]; after 0.5 h,0.38 mg/mL of EYP001
same,Soluble fraction,[6]; after 1 h,0.45 mg/mL of EYP001
same,Soluble fraction,[6]; after 2 h,0.51 mg/mL of EYP001
same,Soluble fraction,[6]; after 24 h,0.62 mg/mL of EYP001
same,pH,[6]; after 0.5 h,(pH = 4.9)
same,pH,[6]; after 1 h,(pH = 6.4)
same,pH,[6]; after 2 h,(pH = 4.9)
same,pH,[6]; after 24 h,(pH = 4.9)
same,Cmax,[7],6990 ng/mL
same,AUC(0-t),[7]; read-out: Mean AUC0-24,52300 ng·h/mL

# — patent US20250019370A1, “L-LYSINE SALT OF 4-CHLORO-5-[4-(2,6-DICHLOROPHENYL)SULFONYLPIPERAZIN-1-YL]-1-BENZOFURAN-2-CARBOXYLIC ACID AND VARIOUS FORMS THEREOF” (ENYO PHARMA, priority 2023, published 2025)
